Experimental data from publication PMC11406361, “Several orphan solute carriers functionally identified as organic cation transporters: Substrates specificity compared with known cation transporters” (The Journal of Biological Chemistry, 2024).

What was measured:
SLC44A1 [1] = molecular target: T1, SLC44A1 (Homo sapiens, UniProt Q8WWI5)
SLC35F4 [2] = molecular target: T2, SLC35F4 (Homo sapiens, UniProt A4IF30); test: Uptake ratio screen, SLC35F4-overexpressing HEK293 over empty vector cells; format: cell-based; design: by amplifying the entire gene-of-interest within the HEK293 genome via a long-range PCR; settings: 2.5 μM, 2 min
T2 sequence (A4IF30 1-521): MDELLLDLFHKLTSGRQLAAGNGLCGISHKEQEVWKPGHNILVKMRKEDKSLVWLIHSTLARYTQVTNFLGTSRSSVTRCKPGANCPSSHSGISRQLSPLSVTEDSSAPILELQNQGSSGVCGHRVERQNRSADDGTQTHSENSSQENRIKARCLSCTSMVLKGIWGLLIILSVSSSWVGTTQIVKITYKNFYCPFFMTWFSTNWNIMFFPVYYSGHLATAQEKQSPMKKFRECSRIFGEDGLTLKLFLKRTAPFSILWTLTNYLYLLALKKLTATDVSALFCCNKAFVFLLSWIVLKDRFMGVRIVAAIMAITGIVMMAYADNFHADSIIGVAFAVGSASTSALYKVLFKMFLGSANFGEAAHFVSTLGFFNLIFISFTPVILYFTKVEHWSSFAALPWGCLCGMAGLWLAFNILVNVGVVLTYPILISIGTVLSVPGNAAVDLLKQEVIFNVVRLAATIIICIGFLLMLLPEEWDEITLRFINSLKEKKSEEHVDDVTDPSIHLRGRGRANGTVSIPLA
Procedure: (§1) Typically discussed substrates of the proton organic-cation antiporter ([14]) are highlighted in dark green in Figure 1.
(§2) In preparation for transport experiments, 24-well plates were pre-coated with poly-D-lysine (Sigma-Aldrich) and 300,000 cells were plated per well and incubated for 48 h. Firstly, the 24-well plate was placed on a heating plate at 37 °C, and the cells were washed with 37 °C HBSS^+ buffer (Hank’s balanced salt solution supplemented with 10 mM Hepes and adjusted to pH 7.4; Thermo Fisher Scientific). The substance-of-interest, which was diluted in 37 °C HBSS^+ to a desired concentration, was added to the cells for exactly 2 min. […] The uptake was stopped with ice-cold HBSS^+, and the 24-well plate was removed from the heating plate. The cells were washed twice with the cold HBSS^+ before they were lysed for 15 min with 80% (v/v) acetonitrile containing the respective internal standard for mass spectrometry. For variations in seeded cell numbers between the cell lines, several wells were lysed in RIPA buffer and used for total protein quantification using a bicinchoninic assay ([74]) and bovine serum albumin as calibration.
(§3) The intracellular drug concentrations after transport experiments were analyzed by high-performance liquid chromatography coupled to tandem mass spectrometry analysis. The HPLC consisted of a Shimadzu Nexera HPLC System with a SIL-30AC autosampler, a LC-30AD pump, a CTO-20AC column oven, and a CBM-20A controller (Shimadzu). The reverse-phase chromatography of compounds was accomplished with a Brownlee SPP RP-Amide column with 4.6 × 100 mm inner dimensions, a particle size of 2.7 μm, and a preceding Phenomenex C-18 guard column. The mobile phase was composed of an organic additive with acetonitrile:methanol 6:1 (v/v) in total concentrations between 3% and 50% (v/v) and 0.1% (v/v) formic acid in the aqueous component of the eluent. During separation, the column oven was held at 40 °C and the mobile phase was maintained at a flow rate of 300 or 400 μl/min. After separation, the detection of substances was performed with an API 4000 tandem mass spectrometer (AB SCIEX, https://sciex.com/support/software-support/software-downloads), followed by quantification of results with the Analyst software (AB SCIEX, version 1.6.2). The composition of chromatographic conditions, as well as detailed mass spectrometric detection parameters, are listed in Table S5.
(§4) Transport-mediated net uptake was determined as fold-increase of transporter-overexpressing cells over empty vector–transfected control cells.

SLC19A3 = molecular target: T3, SLC19A3 (Homo sapiens, UniProt Q9BZV2); test: Uptake ratio screen, SLC19A3-overexpressing HEK293 over empty vector cells; format: cell-based; settings: 2.5 μM, 2 min
T3 construct: expressed in transfected cells
Procedure: as §1
In preparation for transport experiments, 24-well plates were pre-coated with poly-D-lysine (Sigma-Aldrich) and 300,000 cells were plated per well and incubated for 48 h. Firstly, the 24-well plate was placed on a heating plate at 37 °C, and the cells were washed with 37 °C HBSS^+ buffer (Hank’s balanced salt solution supplemented with 10 mM Hepes and adjusted to pH 7.4; Thermo Fisher Scientific). The substance-of-interest, which was diluted in 37 °C HBSS^+ to a desired concentration, was added to the cells for exactly 2 min. […] For variations in seeded cell numbers between the cell lines, several wells were lysed in RIPA buffer and used for total protein quantification using a bicinchoninic assay ([74]) and bovine serum albumin as calibration.
The intracellular drug concentrations after transport experiments were analyzed by high-performance liquid chromatography coupled to tandem mass spectrometry analysis. […] After separation, the detection of substances was performed with an API 4000 tandem mass spectrometer (AB SCIEX, https://sciex.com/support/software-support/software-downloads), followed by quantification of results with the Analyst software (AB SCIEX, version 1.6.2). […]

SLC35F4 [3] = molecular target: T2, SLC35F4
SLC35G4 = SLC35G4 (Homo sapiens, UniProt P0C7Q5); settings: 2.5 μM, 2 min, HEK293
Procedure: as §1, §2, §3, §4

SLC44A1 [4] = molecular target: T1, SLC44A1; settings: 2.5 μM, 2 min, HEK293
Procedure: as §1, §2, §3, §4

SLC35E4 [5] = molecular target: T4, SLC35E4 (Homo sapiens, UniProt Q6ICL7); test: Uptake ratio screen, SLC35E4-overexpressing HEK293 over empty vector cells; format: cell-based; design: by amplifying the entire gene-of-interest within the HEK293 genome via a long-range PCR; settings: 2.5 μM, 2 min
T4 sequence (Q6ICL7 1-350): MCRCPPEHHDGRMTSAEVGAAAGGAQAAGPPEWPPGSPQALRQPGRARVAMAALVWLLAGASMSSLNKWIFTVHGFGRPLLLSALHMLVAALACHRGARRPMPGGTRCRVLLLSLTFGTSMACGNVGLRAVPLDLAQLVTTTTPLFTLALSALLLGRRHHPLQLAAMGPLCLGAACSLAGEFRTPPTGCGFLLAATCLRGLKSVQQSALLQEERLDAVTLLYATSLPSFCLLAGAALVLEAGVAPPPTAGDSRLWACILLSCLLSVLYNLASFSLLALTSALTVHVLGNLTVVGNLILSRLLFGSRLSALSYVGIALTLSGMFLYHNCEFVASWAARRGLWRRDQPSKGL
Procedure: as §1, §2
(§5) The intracellular drug concentrations after transport experiments were analyzed by high-performance liquid chromatography coupled to tandem mass spectrometry analysis. The HPLC consisted of a Shimadzu Nexera HPLC System with a SIL-30AC autosampler, a LC-30AD pump, a CTO-20AC column oven, and a CBM-20A controller (Shimadzu). The reverse-phase chromatography of compounds was accomplished with a Brownlee SPP RP-Amide column with 4.6 × 100 mm inner dimensions, a particle size of 2.7 μm, and a preceding Phenomenex C-18 guard column. […] After separation, the detection of substances was performed with an API 4000 tandem mass spectrometer (AB SCIEX, https://sciex.com/support/software-support/software-downloads), followed by quantification of results with the Analyst software (AB SCIEX, version 1.6.2). […]
as §4

SLC19A2 = molecular target: T5, SLC19A2 (Homo sapiens, UniProt O60779); test: Uptake ratio screen, SLC19A2-overexpressing HEK293 over empty vector cells; format: cell-based; settings: 2.5 μM, 2 min
T5 construct: expressed in transfected cells
T5 sequence (O60779 1-497): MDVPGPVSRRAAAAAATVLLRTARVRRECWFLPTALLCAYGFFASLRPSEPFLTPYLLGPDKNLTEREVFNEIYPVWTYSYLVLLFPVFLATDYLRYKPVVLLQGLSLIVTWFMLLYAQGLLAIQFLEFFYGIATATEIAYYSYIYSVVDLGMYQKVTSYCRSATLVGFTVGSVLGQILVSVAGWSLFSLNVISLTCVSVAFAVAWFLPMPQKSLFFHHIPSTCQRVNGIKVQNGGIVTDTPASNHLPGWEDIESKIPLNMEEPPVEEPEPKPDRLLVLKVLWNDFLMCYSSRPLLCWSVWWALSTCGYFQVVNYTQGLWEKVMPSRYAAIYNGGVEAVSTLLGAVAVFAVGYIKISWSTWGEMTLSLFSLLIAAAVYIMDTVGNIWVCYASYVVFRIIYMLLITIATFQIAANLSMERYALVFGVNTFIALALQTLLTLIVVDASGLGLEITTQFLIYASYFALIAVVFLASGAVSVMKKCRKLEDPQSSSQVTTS
Procedure: as §1, §2, §5, §4

SLC35E4 [6] = molecular target: T4, SLC35E4
SLC35F3 = SLC35F3 (Homo sapiens, UniProt Q8IY50)
SLC35F3, sequence (Q8IY50 whole entry): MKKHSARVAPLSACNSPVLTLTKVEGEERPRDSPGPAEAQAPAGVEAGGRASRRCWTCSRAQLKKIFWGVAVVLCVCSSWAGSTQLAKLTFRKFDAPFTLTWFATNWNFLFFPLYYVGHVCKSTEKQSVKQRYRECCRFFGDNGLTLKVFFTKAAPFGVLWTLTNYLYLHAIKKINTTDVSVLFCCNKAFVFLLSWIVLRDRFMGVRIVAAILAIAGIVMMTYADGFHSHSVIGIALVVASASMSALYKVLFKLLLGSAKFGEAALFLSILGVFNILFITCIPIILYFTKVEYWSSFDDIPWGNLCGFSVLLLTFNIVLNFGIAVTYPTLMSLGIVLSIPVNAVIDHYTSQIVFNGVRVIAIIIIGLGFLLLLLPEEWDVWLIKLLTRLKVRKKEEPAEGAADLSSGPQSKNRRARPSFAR

T1 sequence (Q8WWI5 whole entry): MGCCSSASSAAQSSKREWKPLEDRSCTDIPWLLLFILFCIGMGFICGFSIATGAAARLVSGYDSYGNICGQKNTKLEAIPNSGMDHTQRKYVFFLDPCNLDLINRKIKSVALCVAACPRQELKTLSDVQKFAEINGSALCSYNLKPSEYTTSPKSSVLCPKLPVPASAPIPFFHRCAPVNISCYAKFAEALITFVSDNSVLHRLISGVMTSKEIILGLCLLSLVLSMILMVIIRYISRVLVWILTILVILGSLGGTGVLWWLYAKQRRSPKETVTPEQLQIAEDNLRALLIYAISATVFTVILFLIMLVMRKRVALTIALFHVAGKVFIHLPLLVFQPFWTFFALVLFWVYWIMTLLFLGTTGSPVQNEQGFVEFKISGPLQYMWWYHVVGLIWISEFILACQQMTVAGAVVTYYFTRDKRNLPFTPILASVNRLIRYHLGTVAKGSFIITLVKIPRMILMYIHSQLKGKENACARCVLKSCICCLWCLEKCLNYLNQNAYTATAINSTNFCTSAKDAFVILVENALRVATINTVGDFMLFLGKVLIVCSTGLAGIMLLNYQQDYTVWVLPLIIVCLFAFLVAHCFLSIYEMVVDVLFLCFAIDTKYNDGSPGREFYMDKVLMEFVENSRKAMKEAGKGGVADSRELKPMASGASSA
T3 sequence (Q9BZV2 whole entry): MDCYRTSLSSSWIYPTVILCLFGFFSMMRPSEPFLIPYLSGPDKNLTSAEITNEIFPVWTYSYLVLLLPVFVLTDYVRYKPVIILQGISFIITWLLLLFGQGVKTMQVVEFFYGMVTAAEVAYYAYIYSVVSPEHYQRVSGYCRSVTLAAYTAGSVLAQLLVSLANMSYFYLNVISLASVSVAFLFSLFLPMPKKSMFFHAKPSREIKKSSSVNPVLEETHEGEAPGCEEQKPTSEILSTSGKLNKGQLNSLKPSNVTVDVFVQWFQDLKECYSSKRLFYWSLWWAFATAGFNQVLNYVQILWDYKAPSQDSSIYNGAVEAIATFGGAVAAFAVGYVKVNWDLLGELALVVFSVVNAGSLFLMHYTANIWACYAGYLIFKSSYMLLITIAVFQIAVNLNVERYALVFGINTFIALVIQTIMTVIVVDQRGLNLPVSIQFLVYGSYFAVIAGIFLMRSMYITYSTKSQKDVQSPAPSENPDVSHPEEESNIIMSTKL
SLC35G4, sequence (P0C7Q5 whole entry): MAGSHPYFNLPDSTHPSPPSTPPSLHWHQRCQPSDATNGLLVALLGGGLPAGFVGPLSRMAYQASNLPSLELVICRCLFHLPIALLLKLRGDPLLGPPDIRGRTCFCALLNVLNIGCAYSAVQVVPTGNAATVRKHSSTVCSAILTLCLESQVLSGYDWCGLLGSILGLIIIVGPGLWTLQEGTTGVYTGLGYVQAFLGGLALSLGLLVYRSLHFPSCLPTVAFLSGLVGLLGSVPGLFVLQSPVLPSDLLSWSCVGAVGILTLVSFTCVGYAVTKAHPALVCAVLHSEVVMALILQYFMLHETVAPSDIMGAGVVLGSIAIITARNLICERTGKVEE

C[N+](C)(C)CCO [Choline]
Clint (±SEM) (SLC44A1 [1]): 2.08 (±1.79) μl × mg protein^-1 × min^-1 | Uptake by SLC35F4 (in words) (SLC35F4 [2]): enhanced cell uptake | Uptake by SLC19A3 (in words) (SLC19A3): transports | Clint (±SEM) (SLC35F4 [3]): 1.32 (±1.74) μl × mg protein^-1 × min^-1 | Uptake by SLC35G4 (in words) (SLC35G4): extensively enhanced the cell uptake | Uptake by SLC44A1 (CTL1) (in words) (SLC44A1 [4]): moderate choline uptake | Uptake by SLC35E4 (in words) (SLC35E4 [5]): moderate influx transport activity | Uptake by SLC19A2 (in words) (SLC19A2): enhance cell uptake | Clint (±SEM) (SLC35E4 [6]): 0.17 (±0.36) μl × mg protein^-1 × min^-1 | Clint (±SEM) (SLC35F3): 1.21 (±1.36) μl × mg protein^-1 × min^-1
